Measurements published in the NIST ThermoML archive (doi:10.1016/j.fluid.2011.06.011).

Experiment: refractive index (Na D-line) (dimensionless); xn = mol fraction of the nth substance listed
Settings: 101 kPa, Liquid, Standard Abbe refractometry

C=CC(C)(O)CCC=C(C)C (stereo not drawn) [3,7-dimethyl-1,6-octadien-3-ol] + CCO
refractive index
Settings | 283.15 K | 298.15 K | 313.15 K | 328.15 K
x1 = 0.0471 | – | – | – | 1.3611
x1 = 0.0493 | – | – | 1.3678 | –
x1 = 0.0506 | 1.38013 | 1.37416 | – | –
x1 = 0.1008 | 1.39241 | 1.38626 | 1.37996 | 1.37358
x1 = 0.1969 | 1.41091 | 1.40451 | 1.39788 | 1.39102
x1 = 0.2884 | 1.42392 | – | – | –
x1 = 0.2895 | – | 1.4175 | 1.41061 | 1.4036
x1 = 0.388 | 1.43469 | 1.42801 | – | –
x1 = 0.3957 | – | – | 1.42171 | 1.41452
x1 = 0.4803 | 1.44248 | – | – | –
x1 = 0.4834 | – | 1.4359 | 1.42883 | 1.42158
x1 = 0.56 | 1.44799 | – | – | –
x1 = 0.593 | – | 1.44306 | 1.43594 | 1.42859
x1 = 0.6838 | 1.45474 | 1.44779 | 1.44061 | 1.43327
x1 = 0.7832 | 1.45921 | – | – | –
x1 = 0.8438 | – | 1.45451 | 1.44732 | 1.43989
x1 = 0.8941 | 1.46319 | 1.45612 | 1.4489 | 1.4415
x1 = 0.9286 | 1.46443 | – | 1.45004 | 1.44266
x1 = 0.9337 | – | 1.45748 | – | –
x1 = 1 | 1.4666 | 1.45946 | 1.45215 | 1.44473
